In patent publication US7906300B2, “Methods for diagnosing an attention-deficit/Hyperactivity disorder” (PsychNostics, LLC, priority 2005, dated 2011):

Tests used:
Format in all cases: cell-based, human
lymphoblasts [1] = test: Rate of drop in membrane potential (repolarization rate) of lymphoblasts, with/without compound; conditions: 30 min, K+-free and K+-containing buffer
Protocol: (§1) The membrane potentials of the bipolar I cells shown in Table 4 above (as well as in all other experiments, except where indicated) were measured using the following protocol. The cells cultured in the media described above were centrifuged at 210 g for 5 minutes at room temperature, then suspended in 3 ml of K^+-containing stock buffer (5 mM KCl, 4 mM NaHCO3, 5 mM HEPES, 134 mM NaCl, 2.3 mM CaCl2, and 5 mM glucose). The cells were counted and the desired number of cells were again suspended in the K^+-containing buffer. The membrane potentials were measured using 3,3′-dihexyloxacarbocyanine iodide DiOC6(3), a cell-permeant, voltage sensitive, green-fluorescent dye (Molecular Probes Inc. Eugene, Oreg. USA). […]
(§2) A fluorescence spectrometer (F2500 Hitachi, Japan) was used for the measurement of the membrane potential by measuring the fluorescence intensity of DiOC6(3), which is directly proportional to the membrane potential. The intensity of fluorescence was measured at an excitation wavelength of 488 nm and an output wavelength of 540 nm. […]
The rate of drop in membrane potential after incubation with the protein kinase C (PKC) activator, phorbol 12-myristate 13-acetate (PMA), was compared in affected cells to that of unaffected cells. The membrane potential of these cells was determined by measuring the fluorescence intensity as described above. […]

whole blood cells [2] = test: Membrane potential ratio of whole blood cells, clinical trials (DiOC6(3) fluorescence); conditions: for ratio of intensity in K+-free buffer with 30 μM ethacrynate to intensity in K+-containing buffer without ethacrynate, Median: plate reader
Protocol: Because the volume of blood required to collect enough lymphocytes was beyond that permitted by the current protocol, the membrane potential of whole blood cells was determined. The volume of whole blood required was approximately 1 ml. The blood samples were kept on ice until they were stored at 4° C. All of the samples were tested within 48 hours.
Whole blood samples drawn from patients and controls were suspended in K^+-containing buffer without ethacrynate and in K^+-free buffer with 30 μM ethacrynate or with 100 mM sorbitol. The fluorescent dye DiOC6(3) was added to both suspensions and incubated for 30 minutes. The cell suspensions loaded with the dye were centrifuged, drained and resuspended in the respective buffers. The fluorescence intensity was measured for 10 seconds and the ratio of the intensity in K^+-free buffer to the intensity in K^+-containing buffer was calculated.
Whole blood samples drawn from patients and controls were suspended both in K^+-containing buffer and in K^+-free buffer with 30 μM ethacrynate or with 100 μM sorbitol. The fluorescent dye DiOC6(3) was added to both suspensions and incubated for 30 minutes. The cell suspensions loaded with the dye were centrifuged, drained and resuspended in the respective buffers. The fluorescence intensity was measured for 10 seconds and the ratio of the intensity in K^+-free buffer to the intensity in K^+-containing buffer was calculated.
An individual patient's cell sample was tested as described herein and six to twelve ratios were calculated. These values were treated as a group and compared with a normal control group (negative control) and a bipolar group (positive control).
(§3) Cells from control, bipolar I and bipolar II individuals were compared amongst each other as described herein. Whole blood samples drawn from patients and controls and aliquots were suspended either in K^+-containing buffer without ethacrynate, or in K^+-free buffer with 30 μM ethacrynate. The fluorescent dye DiOC6(3) was added to the suspensions and incubated for 30 minutes. The cell suspensions loaded with the dye were centrifuged, drained and resuspended in the respective buffers. The fluorescence intensity was measured for 10 seconds and the ratio of the intensity in K^+-free buffer to the intensity in K^+-containing buffer was calculated. Plate Reader (PerkinsElmer Victor V) was used for intensity measurements).
as §3, with “ADHD” for “bipolar II”

lymphoblasts [3] = test: Membrane potential of lymphoblasts by DiOC6(3) fluorescence intensity ratio, with/without compound
Source text: Three groups of immortalized lymphoblast samples were obtained from the Human Genetic Mutant Cell Repository (Coriell Institute for Medical Research, Camden N.J.). The samples are shown in Table 4 below and included six from affected (bipolar I disorder) patients (A1 through A6), six from their siblings (S1 through S6), and six from unrelated normal control subjects matched by age and sex (N1 through N6).
as §1, §2
Membrane potential was expressed according to fluorescence intensity using the following equation: I=CV, wherein I is the fluorescence intensity of a lipophilic fluorescent dye DiOC6(3) being only one example of such a dye); V is the voltage or membrane potential; and C is a constant that can vary depending on a number of factors such as, but not limited to, temperature, lamp intensity, number of cells, concentration of the fluorescent dye, incubation time, and lipid composition of cells used. […]
Membrane potentials were also measured in K^+-free buffer to enable comparison with membrane potentials in K^+-containing buffer. […]

whole blood cells [4] = test: Membrane potential ratio of whole blood cells, clinical trials (DiOC6(3) fluorescence); conditions: open trial; bipolar patients; 100 mM sorbitol; FIG. 13

CCCCCCCCCCCCCC(=O)O[C@@H]1[C@@H](C)[C@@]2(O)[C@@H](C=C(CO)C[C@]3(O)C(=O)C(C)=C[C@@H]23)[C@@H]2C(C)(C)[C@]12OC(C)=O [PMA, phorbol 12-myristate 13-acetate]
relative ratio of repolarization rates in affected cells compared with unaffected cells (lymphoblasts [1]; 2 μM PMA, P=0.046, FIG. 10): significantly lower

C=C(CC)C(=O)c1ccc(OCC(=O)O)c(Cl)c1Cl [ethacrynate]
ratio of fluorescence intensity in K+-free buffer containing 30 μM ethacrynate to that in K+-containing buffer without ethacrynate, Mean (whole blood cells [2]; blind clinical trial, Controls): 0.850 | ratio of fluorescence intensity in K+-free buffer containing 30 μM ethacrynate to that in K+-containing buffer without ethacrynate, Median (whole blood cells [2]; blind clinical trial, Controls): 0.850 | ratio of fluorescence intensity in K+-free buffer containing 30 μM ethacrynate to that in K+-containing buffer without ethacrynate, Mean (whole blood cells [2]; blind clinical trial, Schizophr.): 0.870 | ratio of fluorescence intensity in K+-free buffer containing 30 μM ethacrynate to that in K+-containing buffer without ethacrynate, Mean (whole blood cells [2]; individual Patient A (diagnosed bipolar)): 0.766 | ratio of fluorescence intensity in K+-free buffer containing 30 μM ethacrynate to that in K+-containing buffer without ethacrynate, Mean (whole blood cells [2]; open clinical trial, Bipolars): 0.780 | ratio of intensity in K+-free buffer with 30 μM ethacrynate to intensity in K+-containing buffer without ethacrynate, Median (whole blood cells [2]; ADHD group): 0.808 | ratio of intensity in K+-free buffer with 30 μM ethacrynate to intensity in K+-containing buffer without ethacrynate, Median (whole blood cells [2]; BPD I group): 0.606 | ratio of intensity in K+-free buffer with 30 μM ethacrynate to intensity in K+-containing buffer without ethacrynate, Median (whole blood cells [2]; BPD II group): 0.648 | ratio of intensity in K+-free buffer with 30 μM ethacrynate to intensity in K+-containing buffer without ethacrynate, Median (whole blood cells [2]; Negative (control) group): 0.676 | relative intensity ratio of affected cells compared with unaffected cells (lymphoblasts [3]; 30 μM ethacrynate, K+-free vs K+-containing buffer, t-test P=0.009, FIG. 5): significantly higher | intensity ratio (membrane potential with ethacrynate/without ethacrynate) of affected cells compared with unaffected cells (lymphoblasts [3]; K+-free buffer, 30 μM ethacrynate, t-test P=0.032, FIG. 6): significantly higher | relative rate of repolarization in affected cells compared with unaffected cells (lymphoblasts [1]; 30 μM ethacrynate, P=0.041, FIG. 7): significantly higher

CC[C@@]1([C@@H]2O[C@@H]([C@H]3O[C@@](O)(CO)[C@H](C)C[C@@H]3C)C[C@@H]2C)CC[C@H]([C@]2(C)CC[C@]3(C[C@H](O)[C@@H](C)[C@@H]([C@@H](C)[C@@H](OC)[C@H](C)C(=O)O)O3)O2)O1 [monensin]
intensity ratio (membrane potential with monensin/without monensin) of affected cells compared with unaffected cells (lymphoblasts [3]; K+-free buffer, 10 μM monensin, 30 min, t-test P=0.009, FIG. 8): significantly lower

OC[C@@H](O)[C@@H](O)[C@H](O)[C@@H](O)CO [sorbitol]
fluorescence intensity ratio of bipolar cells with sorbitol in K+-free buffer, compared with ethacrynate (whole blood cells [4]): comparable to the results with ethacrynate
